pIC50: −log10 of the molar value. Like-named read-outs stand apart in the source and are kept apart here.
How the values were obtained:
KB-8-5 cells = test: MTS cytotoxicity test with KB-8-5 cells (moderate P-glycoprotein); type: cell-based, human; details: for pIC50: Homo sapiens, read-out: IC50 KB 8.5; for Ratio 8.5/KB: IC50 on KB 8.5 cells/IC50 on KB cells
Description: (§1) Human cancer cell lines, unless otherwise noted, are obtained from the American Type Culture Collection (Rockville, Md.). The following drug-sensitive parental cell lines, and their derived drug-resistant counterparts, are obtained from the originators as listed: (a) S1 (parental line from a subclone of human colon carcinoma line LS174T) and derived S1-M1-3.2 (herein called S1-M1) which expresses the MXR drug transporter protein, are provided by Dr. L. Greenberger, Wyeth Research (Rabindran, S. K., He, H., Singh, M., Brown, E., Collins, K. I., Annable, T., and Greenberger, L. M. Reversal of a novel multidrug resistance mechanism in human colon carcinoma cells by fumitremorgin C. Cancer Res., 58:5850-5858,1998); (b) parental HL-60 human promyelocytic leukemia line and derived HL-60/ADR, which expresses the MRP1 drug transporter protein, are provided by Dr. M. Center, University of Kansas (McGrath, T., and Center, M. S. Adriamycin resistance in HL60 cells in the absence of detectable P-glycoprotein. Biochem. Biophys. […] J. Biol. Chem., 261: 7762-7770,1986) via Dr. L. Greenberger, Wyeth Research.
(§2) The assay, which is sold in kit form by Promega (Madison, Wis.; CellTiter 96 AQueous Non-Radioactive Cell Proliferation Assay), is based on the conversion by viable cells, but not by dead cells, of the tetrazolium salt, MTS (3-(4,5-dimethylthiazol-2-yl)-5-(3-carboxymethoxyphenyl)-2-(4-sulphophenyl)-2H-tetrazolium, inner salt), into a water-soluble colored formazan which is detected by spectrophotometry. Compounds are tested at nine concentrations, in order to determine IC50 values. For the test procedure, cells are harvested by trypsinization (or, in the case of non-adherent cells, by simple resuspension), washed, counted and distributed to wells of 96-well flat-bottom microtiter plates at 1000 cells per well in 200 μL of medium. In addition, one row of wells on a separate plate received cells as above (“time 0” plate). All plates are incubated at 37° in humidified 5% CO2 in air for about 24 hr.
(§3) On day 2, compounds for test are diluted and added to wells. Compounds are dissolved in DMSO at 10 mg/mL. For each compound, nine serial 2-fold dilutions are prepared in DMSO. Ten μL of each dilution in DMSO is transferred to 100 μL of medium, mixed well, and then 5 μL of this dilution is transferred in quadruplicate to wells containing cells. […] Plates are returned to the incubator for three days. At the time of drug addition to the experimental plates, the MTS assay is run on the “time 0” plate. This produced the “time 0 MTS value” which is related to the number of viable cells per well at the time of drug addition.
(§4) After three days of culture with test compounds (day 5 overall), the MTS assay is done on all wells of the experimental plates. The absorbance values of the quadruplicate sample wells are averaged and divided by the average of the “time 0” values. […] The nine values for each compound are plotted against concentration, and the concentration that produced a relative color yield half way between the maximum and minimum is taken as the IC50 value.
(§5) The KB lines express different amounts of the P-glycoprotein (MDR1) membrane pump which produces resistance to the action of many cytotoxic compounds, including paclitaxel and vincristine. The parental KB line expresses no P-glycoprotein, KB-8-5 expresses moderate levels of the protein, and KB-V1 expresses very high levels.

KB-V1 cells = test: MTS cytotoxicity test with KB-V1 cells (very high P-glycoprotein); type: cell-based, human; details: for pIC50: Homo sapiens, KB-V1 cells, MTS; for Ratio VI/KB: IC50 on KB VI cells/IC50 on KB cells; for recognition by P-glycoprotein: inferred from IC50 on KB-V1 compared to parental KB line
Description: as §1, §2, §3, §4, §5

S1 cells = test: MTS cytotoxicity test with S1 cells; type: cell-based; details: Homo sapiens
Description: as §1, §2, §3, §4
(§6) S1-M1 cells overexpress the MXR transporter which mediates resistance to some chemotherapeutics (Gottesman, M. M., Fojo, T., and Bates, S. E. Miltidrug resistance in cancer: role of ATP-dependent transporters. Nature Rev. Cancer, 2: 48-58, 2002). The IC50 values of representative examples of this invention, as well as reference compounds, on S1-M1 are compared to values on the sensitive parental S1 line.

S1-M1 cells = test: MTS cytotoxicity test with S1-M1 cells (MXR); type: cell-based, human; details: for pIC50: Homo sapiens, read-out: IC50 S1-M1; for Ratio: IC50 on S1-M1 cells/IC50 on S1 cells
Description: as §1, §2, §3, §4, §6

Structure (SMILES)	pIC50 (KB-8-5 cells; KB-8-5 cells, MTS)	Ratio 8.5/KB (KB-8-5 cells)	pIC50 (KB-V1 cells)	Ratio VI/KB (KB-V1 cells)	recognition by P-glycoprotein (KB-V1 cells)	pIC50 (S1 cells)	pIC50 (S1-M1 cells; S1-M1 cells, MTS)	Ratio (S1-M1 cells)	pIC50 (KB-8-5 cells)	pIC50 (S1-M1 cells)	Ratio VI/KB (KB-V1 cells; listed as paclitaxel)	Ratio VI/KB (KB-V1 cells; listed as vincristine)
C[C@H](Nc1c(-c2c(F)cc(OCCCN(C)C)cc2F)c(Cl)nc2ncnn12)C(F)(F)F.Cl [Example 1a, 5-chloro-6-{4-[3-(dimethylamino)propoxy]-2,6-difluorophenyl}-N-[(1S)-2,2,2-trifluoro-1-methylethyl][1,2,4]triazolo[1,5-a]pyrimidin-7-amine hydrogen chloride Salt]	7.21	2.2	6.99	3.7	show recognition by P-glycoprotein	7.14	7.12	1.0	–	–	–	–
CNCCCOc1cc(F)c(-c2c(Cl)nc3ncnn3c2N[C@@H](C)C(F)(F)F)c(F)c1.Cl [Example 2a, 5-Chloro-6-{2,6-difluoro-4-[3-(methylamino)propoxy]phenyl}-N-[(1S)-2,2,2-trifluoro-1-methylethyl][1,2,4]triazolo[1,5-a]pyrimidin-7-amine hydrogen chloride]	–	–	5.95	48	show recognition by P-glycoprotein	7.15	–	1.0	7.19	7.16	–	–
CNCCCOc1cc(F)c(-c2c(Cl)nc3ncnn3c2NCC(F)(F)F)c(F)c1.Cl [Example 3a, 5-Chloro-6-{2,6-difluoro-4-[3-(methylamino)propoxy]phenyl}-N-(2,2,2-trifluoroethyl)[1,2,4]triazolo[1,5-a]pyrimidin-7-amine hydrogen chloride Salt]	7.16	3.8	5.67	119	show recognition by P-glycoprotein	7.21	7.15	1.2	–	–	–	–
CN(C)CCCOc1cc(F)c(-c2c(Cl)nc3ncnn3c2NCC(F)(F)F)c(F)c1.Cl [Example 4a, 5-Chloro-6-{4-[3-(dimethylamino)propoxy]-2,6-difluorophenyl}-N-(2,2,2-trifluoroethyl)[1,2,4]triazolo[1,5-a]pyrimidin-7-amine Hydrogen chloride Salt]	7.24	–	6.79	7	show recognition by P-glycoprotein	7.14	7.14	1.0	–	–	–	–
C[C@H](Nc1c(-c2c(F)cc(OCCCO)cc2F)c(Cl)nc2ncnn12)C(F)(F)F [Example 20, 3-[4-(5-Chloro-7-{[(1S)-2,2,2-trifluoro-1-methylethyl]amino}[1,2,4]triazolo[1,5-a]pyrimidin-6-yl)-3,5-difluorophenoxy]propan-1-ol]	7.18	–	7.14	–	not recognized at all by P-glycoprotein	7.07	7.04	1.1	–	–	–	–
C[C@H](Nc1c(-c2c(F)cc(OCCCN(C)C)cc2F)c(Br)nc2ncnn12)C(F)(F)F [Example 25, 5-Bromo-6-{4-[3-(dimethylamino)propoxy]-2,6-difluorophenyl}-N-[(1S)-2,2,2-trifluoro-1-methylethyl][1,2,4]triazolo[1,5-a]pyrimidin-7-amine]	7.17	–	6.78	–	not recognized at all by P-glycoprotein	6.97	7.08	0.80	–	–	–	–
OCCCOc1cc(F)c(-c2c(Cl)nc3ncnn3c2C2CCCCCC2)c(F)c1 [Example 30, 3-[4-(5-Chloro-7-cycloheptyl[1,2,4]triazolo[1,5-a]pyrimidin-6-yl)-3,5-difluorophenoxy]propan-1-ol]	6.90	–	7.01	–	not recognized at all by P-glycoprotein	7.18	7.11	1.2	–	–	–	–
CNCCCOc1cc(F)c(-c2c(Cl)nc3ncnn3c2C2CCCCCC2)c(F)c1.O=C(O)C(F)(F)F [Example 32, 3-[4-(5-Chloro-7-cycloheptyl[1,2,4]triazolo[1,5-a]pyrimidin-6-yl)-3,5-difluorophenoxy]-N-methylpropan-1-amine trifluoroacetic acid salt]	7.82	–	6.97	9.9	show recognition by P-glycoprotein	7.96	8.05	0.80	–	–	–	–
CC(=O)O[C@H]1C(=O)[C@@]2(C)[C@H]([C@H](OC(=O)c3ccccc3)[C@]3(O)C[C@H](OC(=O)[C@H](O)[C@@H](NC(=O)c4ccccc4)c4ccccc4)C(C)=C1C3(C)C)[C@]1(OC(C)=O)CO[C@@H]1C[C@@H]2O [Paclitaxel, reference compound]	7.25	19	< 6.00	>345	–	8.09	8.36	0.54	–	–	> 345	–
CC[C@]1(O)C[C@H]2CN(CCc3c([nH]c4ccccc34)[C@@](C(=O)OC)(c3cc4c(cc3OC)N(C=O)[C@H]3[C@@](O)(C(=O)OC)[C@H](OC(C)=O)[C@]5(CC)C=CCN6CC[C@]43[C@@H]65)C2)C1 [Vincristine, reference compound]	7.14	11	< 6.00	>156	–	8.25	8.34	0.82	–	–	–	> 156
